Experimental findings from US20240018138A1, “PYRIDO[4,3-b]INDOLE DERIVATIVES AND THEIR USE AS PHARMACEUTICALS” (Ventus Therapeutics U.S., Inc., priority 2020, published 2024) are described below.

By IC50 is commonly meant the concentration needed to halve the response being measured.

Molecules are shown by their SMILES.

The target of this test is h-cGAS (Homo sapiens (Human), UniProt Q8N884). Kind of test: h-cGAS Kinase-Glo assay. The test is classed as biochemical. Conditions: Kinase-Glo Max; 40 nM h-cGAS, 100 uM ATP, 100 uM GTP, 25 nM dsDNA, 2 h incubation.
h-cGAS, sequence (Q8N884 whole entry): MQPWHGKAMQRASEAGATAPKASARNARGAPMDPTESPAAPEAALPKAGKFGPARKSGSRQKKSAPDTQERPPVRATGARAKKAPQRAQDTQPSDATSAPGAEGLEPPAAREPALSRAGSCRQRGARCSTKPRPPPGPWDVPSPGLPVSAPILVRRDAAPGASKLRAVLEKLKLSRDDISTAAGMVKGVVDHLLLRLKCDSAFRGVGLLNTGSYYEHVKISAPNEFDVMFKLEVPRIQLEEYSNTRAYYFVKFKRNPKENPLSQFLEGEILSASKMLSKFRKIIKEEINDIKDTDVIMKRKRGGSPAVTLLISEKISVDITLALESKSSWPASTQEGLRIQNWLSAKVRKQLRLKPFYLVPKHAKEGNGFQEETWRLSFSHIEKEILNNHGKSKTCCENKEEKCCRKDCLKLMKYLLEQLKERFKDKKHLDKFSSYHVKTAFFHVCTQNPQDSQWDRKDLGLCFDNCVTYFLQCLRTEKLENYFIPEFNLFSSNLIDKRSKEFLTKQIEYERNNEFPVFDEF
`COCC(=O)N1CCc2[nH]c3c(Cl)c(F)ccc3c2[C@H]1C` [Compound 107]: the half-maximal inhibitory concentration (IC50) amounted to 51.8 nM.
As for `COCC(=O)N1Cc2c([nH]c3c(Cl)c(Br)ccc23)C[C@H]1C` [Compound 122], the IC50 is 205 nM.
Under `COCC(=O)N1Cc2c([nH]c3c(Cl)c(Cl)ccc23)C[C@@H]1C(C)C` [Compound 114] stands 718 nM; under `COCC(=O)N1Cc2c([nH]c3c(F)c(Br)ccc23)C[C@H]1C` [Compound 126], 387 nM; under `COCC(=O)N1Cc2c([nH]c3c(Cl)c(Cl)cc(-c4ccn(C)n4)c23)C[C@H]1C` [Compound 116], 157 nM.
Then `COCC(=O)N1Cc2c([nH]c3c(Cl)c(Cl)ccc23)CC1Cc1ccccc1` (centres unmarked) [Compound 113], with 4230 nM.
Then `COCC(=O)N1CCc2[nH]c3c(Cl)c(Cl)cc(-c4ccn(C)n4)c3c2[C@H]1C` [Compound 105], with 3820 nM; and `COCC(=O)N1Cc2c([nH]c3c(Cl)c(F)ccc23)C[C@H]1C` [Compound 124], with 1330 nM; and `COCC(=O)N1Cc2c([nH]c3c(Cl)c(Cl)ccc23)C[C@H]1C(F)(F)F` [Compound 115], with 1380 nM.
Consider `COCC(=O)N1Cc2c([nH]c3c(Cl)c(Cl)cc(-c4ccn(C)n4)c23)C[C@@H]1C` [Compound 117], for which inhibition was half-maximal at 221 nM (IC50).
As for `COCC(=O)N1Cc2c([nH]c3c(Cl)c(Cl)ccc23)C[C@@H]1C` [Compound 111], the concentration for half-maximal inhibition (IC50) turned out to be 401 nM.
Compound `COCC(=O)N1Cc2c([nH]c3c(Cl)c(C)ccc23)C[C@@H]1C` [Compound 125] had an IC50 of 756 nM.
Then `COCC(=O)N1Cc2c([nH]c3c(Cl)c(Cl)ccc23)C2CCCCC21` (centres unmarked) [Compound 110], with 2230 nM; and `COCC(=O)N1Cc2c([nH]c3c(Cl)c(Cl)ccc23)C[C@H]1C` [Compound 112], with 236 nM; and `COCC(=O)N1Cc2c([nH]c3c(Br)c(Cl)ccc23)C[C@H]1C` [Compound 121], with 7630 nM.
Regarding `COCC(=O)N1[C@H](C)Cc2[nH]c3c(Cl)c(Cl)ccc3c2[C@@H]1C` [Compound 104], the 50% inhibitory concentration (IC50) was determined as 51.7 nM.
Under `COCC(=O)N1[C@H](C)Cc2[nH]c3c(Cl)c(Cl)ccc3c2[C@@H]1C` [Compound 109] stands 15.1 nM; under `COCC(=O)N1[C@@H](C)Cc2[nH]c3c(Cl)c(Cl)ccc3c2[C@@H]1C` [Compound 108], 62.3 nM; under `COCC(=O)N1Cc2c([nH]c3c(F)c(Cl)ccc23)C[C@H]1C` [Compound 120], 361 nM.
Under `COCC(=O)N1Cc2c([nH]c3c(Br)c(Cl)ccc23)C[C@@H]1C` [Compound 123] stands 133 nM; under `COCC(=O)N1Cc2c([nH]c3c(F)c(Cl)ccc23)C[C@@H]1C` [Compound 118], 316 nM; under `CC[C@H]1Cc2[nH]c3c(Cl)c(Cl)ccc3c2CN1C(=O)COC` [Compound 119], 470 nM.
Under `COCC(=O)N1CCc2[nH]c3c(Cl)c(Cl)cc(-c4ccn(C)n4)c3c2[C@@H]1C` [Compound 106] stands 4550 nM.
